{"source": "paper PMC8567202", "about": "“Phosphoinositide-binding activity of Smad2 is essential for its function in TGF-β signaling” (The Journal of Biological Chemistry, 2021)", "format_in_all_cases": "cell-based", "key": {"HeLa cells [1]": {"tested_on": "HeLa cells", "assay": "TIRF imaging of PM localization of EGFP-Smad2", "conditions": "HeLa cells, 10 ng/ml TGF-β, SB-431542 10 μM for 36 h where used", "description": "(§1) Figure 4 Quantitative imaging analyses of spatiotemporal dynamics of Smad2.A, TIRF images of mouse EGFP-Smad2-WT transfected into HeLa cells whose endogenous Smad2 is suppressed by siRNA. Images were taken before and 5 min after TGF-β stimulation (10 ng/ml) with and without PI(4,5)P2 depletion. A pseudo-coloring scheme was used with orange and blue representing the highest and the lowest intensity, respectively. B, kinetics of TGF-β stimulated (10 ng/ml) PM localization of EGFP-Smad2-WT (blue), -K420A (green), and -W422A (orange) transfected into HeLa cells the endogenous Smad2 of which was suppressed by siRNA. For EGFP-Smad2-WT, the effect of PI(4,5)P2 depletion (black) and TβRI inhibition by SB-431542 (10 μM for 36 h) (red) were measured. Data points indicate average ±S.D. (n = 10 cells). C, spatially resolved PM PI(4,5)P2 concentration ([PI(4,5)P2]) profiles calculated from two-channel cross-sectional images of HeLa cells (before and 5 min after 10 ng/ml TGF-β stimulation and after PI(4,5)P2 depletion). Each cell is a representative of more than ten cells analyzed. Spatially averaged [PI(4,5)P2] values for each cell type are shown. […] E, time courses of the half-life of colocalization for SNAP-TMR-labeled TβRI and EGFP-Smad2 determined by dual color single-molecule tracking analysis. […] For EGFP-Smad2-WT, the effect of PI(4,5)P2 depletion (purple) was measured. […]"}, "TβRI": {"tested_on": "TβRI", "assay": "Dual color single-molecule tracking, TβRI and EGFP-PLCδ-PH", "conditions": "HeLa cells"}, "HeLa cells [2]": {"tested_on": "HeLa cells", "assay": "Ratiometric PI(4,5)P2 imaging", "conditions": "10 ng/ml TGF-β", "description": "as §1"}}}
{"compound": "NC(=O)c1ccc(-c2nc(-c3ccc4c(c3)OCO4)c(-c3ccccn3)[nH]2)cc1", "note": "[SB-431542, reference compound]", "values": [{"measurement": "PM residence / dissociation of Smad2", "setting": "HeLa cells [1]", "value": "greatly elongated the PM residence of Smad2"}]}
{"compound": "EGFP-phospholipase Cδ-pleckstrin homology domain [EGFP-PLCδ-PH]", "values": [{"measurement": "time of maximal dwell time of TβRI-PLCδ-PH complex after TGF-β stimulation", "setting": "TβRI; 10 ng/ml TGF-β, n = 10 cells", "value": 5, "unit": "min"}, {"measurement": "colocalization of TMR-SNAP-TβRI and EGFP-PLCδ-PH after PI(4,5)P2 depletion", "setting": "TβRI; before and after TGF-β stimulation", "value": "eliminated colocalization"}]}
{"compound": "TGF-β: TGF-β1 was purchased from Millipore sigma (Cat no. T7039-2UG)", "values": [{"measurement": "effect on PM PI(4,5)P2 distribution and spatially averaged concentration", "setting": "HeLa cells [2]", "value": "neither spatiotemporal distribution of PI(4,5)P2 nor the spatially averaged PI(4,5)P2 concentration was altered"}]}
